Reference: US8685974B2 (Bayer CropScience AG, priority 2009, dated 2014)
Read-outs that look alike come from different tables or passages of the source. Marks after values point to notes of the source that are not given here.

Experiments:
[1] = tested on: Fusarium graminearum; type: cell-based; conditions: 50 μM; for % Inhibition of DON/AcDON at 50 μM: 7 days at 28° C.

Row | Molecule | % Inhibition of fungal growth at 50 μM [1] | % Inhibition of DON/AcDON at 50 μM [1] | log p (pH 2.7) | other results
1 | Fc1ccc(-c2n[nH]cc2-c2ccncc2)s1 [Example 105] | 0% | 88% | 0.57^[b] | 
2 | CC(C)n1ncc(-c2ccncc2)c1-c1ccc(F)s1 [Example 109] | 49% | 100% | 1.51^[b] | 
3 | C=CCNc1nccc(-c2cn(C(C)CC)nc2-c2ccc(Cl)s2)n1 (centres unmarked) [Example 196] | 83% | 99% |  | log p (pH 2.3): 3.39^[a]
4 | CCC(C)Nc1nccc(-c2cn(C(C)CC)nc2-c2ccc(Cl)s2)n1 (centres unmarked) [Example 197] | 73% | 90% |  | log p (pH 2.3): 3.48^[a]
5 | CC(C)n1cc(-c2ccncc2)c(-c2ccc(I)s2)n1 [Example 214] | 89% | 99% | 1.89^[b] | 
6 | CC(=O)Nc1cc(-c2cn(C)nc2-c2ccc(NC(C)=O)s2)ccn1 [Example 216] |  |  | 0.76^[b] | 
7 | CCC(C)n1cc(-c2ccnc(NS(=O)(=O)N(C)C)c2)c(-c2ccc(Cl)s2)n1 (centres unmarked) [Example 217] |  |  | 3.35^[b] | 
8 | CC(C)n1cc(-c2ccnc(NS(=O)(=O)N(C)C)c2)c(-c2ccc(Cl)s2)n1 [Example 218] |  |  | 3^[b] | 
9 | CCn1cc(-c2ccnc(NS(=O)(=O)N(C)C)c2)c(-c2ccc(Cl)s2)n1 [Example 219] |  |  | 2.59^[b] | 
10 | CN(C)S(=O)(=O)Nc1cc(-c2cn(C)nc2-c2ccc(Cl)s2)ccn1 [Example 220] |  |  | 2.23^[b] | 
11 | CCC(C)n1cc(-c2ccnc(SC)n2)c(-c2ccc(Cl)s2)n1 (centres unmarked) [Example 221] |  |  |  | log p (pH 2.3): 4.88^[a]
12 | CSc1nccc(-c2cn(C(C)C)nc2-c2ccc(Cl)s2)n1 [Example 222] |  |  |  | log p (pH 2.3): 4.44^[a]
13 | CCC(C)n1cc(-c2ccnc(NC(=O)C(C)(C)C)c2)c(-c2ccc(Cl)s2)n1 (centres unmarked) [Example 231] |  |  | 4.35^[b] | 
14 | CCC(C)n1cc(-c2ccnc(NC(=O)c3ccccc3)c2)c(-c2ccc(Cl)s2)n1 (centres unmarked) [Example 237] |  |  | 4.46^[b] | 
15 | COCC(=O)Nc1cc(-c2cn(C(C)C)nc2-c2ccc(Cl)s2)ccn1 [Example 244] | 100% | 99% | 3.25^[b] | 
16 | CCn1cc(-c2ccnc(NC(=O)N(C)C)c2)c(-c2ccc(Cl)s2)n1 [Example 251] | 100% | 99% | 1.72^[b] | 
17 | CCn1cc(-c2ccnc(NC(=O)c3ccccc3)c2)c(-c2ccc(Cl)s2)n1 [Example 266] |  |  | 3.55^[b] | 
18 | CCn1cc(-c2ccnc(NC(=O)OC(C)C)c2)c(-c2ccc(Cl)s2)n1 [Example 268] |  |  | 3.35^[b] | 
19 | Cn1cc(-c2ccnc(NC(=O)c3cccs3)c2)c(-c2ccc(Cl)s2)n1 [Example 273] |  |  | 3.04^[b] | 
20 | Cn1cc(-c2ccnc(NC(=O)C(C)(C)C)c2)c(-c2ccc(Cl)s2)n1 [Example 283] |  |  | 2.92^[b] | 
21 | CC(=O)N(C(C)=O)c1cc(-c2cn(C)nc2-c2ccc(N(C(C)=O)C(C)=O)s2)ccn1 [Example 289] |  |  | 1.84^[b] | 

Row | Molecule | % Inhibition of fungal growth at 50 μM [1] | % Inhibition of DON/AcDON at 50 μM [1] | log p (pH 2.7) | other results
22 | CC(=O)Nc1ccc(-c2nn(C)cc2-c2ccnc(N(C(C)=O)C(C)=O)c2)s1 [Example 290] |  |  | 1.39^[b] | 
23 | CSc1ccc(-c2nn(C(C)C)cc2-c2ccncc2)s1 [Example 294] | 92% | 99% | 1.79^[b] | 
24 | CSc1ccc(-c2c(-c3ccncc3)cnn2C(C)C)s1 [Example 295] |  |  | 1.78^[b] | 
25 | Nc1cc(-c2cn(/C=C/F)nc2-c2ccc(Cl)s2)ccn1 [Example 301] | 60% | 99% | 1.59^[b] | 
26 | FC=Cn1cc(-c2ccnc(N=C(c3ccccc3)c3ccccc3)c2)c(-c2ccc(Cl)s2)n1 [Example 302] |  |  | 4.67^[b] | 
27 | CC(C)n1cc(-c2ccnc(N)c2)c(-c2ccc(Cl)s2)n1 [Example 306] | 87% | 100% | 1.78^[b] | 
28 | Cn1cc(-c2ccnc(N=C(c3ccccc3)c3ccccc3)c2)c(-c2ccc(Cl)s2)n1 [Example 309] |  |  | 4.67^[b] | 
29 | CC(C)n1cc(-c2ccnc(N=C(c3ccccc3)c3ccccc3)c2)c(-c2ccc(Cl)s2)n1 [Example 310] |  |  | 4.46^[b] | 
30 | Cn1cc(-c2ccnc(Cl)c2)c(-c2ccc(Cl)s2)n1 [Example 313] | 6% | 98% | 3.37^[b] | 
31 | FC(F)Cn1cc(-c2ccnc(Cl)c2)c(-c2ccc(Cl)s2)n1 [Example 314] |  |  | 3.71^[b] | 
32 | CC(C)n1cc(-c2ccnc(Cl)c2)c(-c2ccc(Cl)s2)n1 [Example 315] |  |  | 4.44^[b] | 
33 | CCn1cc(-c2ccnc(Cl)c2)c(-c2ccc(Cl)s2)n1 [Example 316] | 37% | 87% | 3.89^[b] | 
34 | N#CCCn1cc(-c2ccncc2)c(-c2ccc(Cl)s2)n1 [Example 322] | 0% | 99% | 0.98^[b] | 
35 | CC1(Cn2cc(-c3ccncc3)c(-c3ccc(Cl)s3)n2)CC1(Cl)Cl (centres unmarked) [Example 324] | 0% | 93% | 2.71^[b] | 
36 | Fc1cccc(Cn2cc(-c3ccncc3)c(-c3ccc(Cl)s3)n2)c1F [Example 325] |  |  | 2.39^[b] | 
37 | CC1(Cn2cc(-c3ccncc3)c(-c3cc4ccsc4s3)n2)CC1(Cl)Cl (centres unmarked) [Example 326] |  |  | 2.62^[b] | logP value of the minor isomer (between parenthesis, Isomer ratio column) (pH 2.7): (2.46)
38 | Fc1cccc(Cn2cc(-c3ccncc3)c(-c3cc4ccsc4s3)n2)c1F [Example 327] |  |  | 1.75^[b] | 
39 | CC(C)=CCn1cc(-c2ccncc2)c(-c2cc3ccsc3s2)n1 [Example 331] |  |  | 1.69^[b] | 
40 | ClC(Cl)=CCn1cc(-c2ccncc2)c(-c2cc3ccsc3s2)n1 [Example 335] |  |  | 1.67^[b] | 
41 | N#CCn1cc(-c2ccncc2)c(-c2cc3ccsc3s2)n1 [Example 336] |  |  | 1.48^[b] | 
42 | N#CCCn1cc(-c2ccncc2)c(-c2cc3ccsc3s2)n1 [Example 338] | 50% | 99% | 1.07^[b] | 

Row | Molecule | % Inhibition of fungal growth at 50 μM [1] | % Inhibition of DON/AcDON at 50 μM [1] | log p (pH 2.7) | other results
43 | Clc1ccc(Cn2cc(-c3ccncc3)c(-c3cc4ccsc4s3)n2)s1 [Example 339] |  |  | 2.57^[b] | logP value of the minor isomer (between parenthesis, Isomer ratio column) (pH 2.7): (2.35)
44 | Fc1ccc(-c2nn(Cc3ccc(Cl)s3)cc2-c2ccncc2)s1 [Example 341] | 55% | 96% | 2.34^[b] | 
45 | CC(C)=CCn1cc(-c2ccncc2)c(-c2ccc(F)s2)n1 [Example 343] |  |  | 1.45^[b] | 
46 | Fc1ccc(-c2nn(CC=C(Cl)Cl)cc2-c2ccncc2)s1 [Example 346] |  |  | 1.43^[b] | 
47 | N#CCn1cc(-c2ccncc2)c(-c2ccc(Br)s2)n1 [Example 348] | 45% | 99% | 1.51^[b] | 
48 | CCOCCn1cc(-c2ccncc2)c(-c2ccc(Br)s2)n1 [Example 349] | 95% | 99% | 1.75^[b] | 
49 | Clc1ccc(Cn2cc(-c3ccncc3)c(-c3ccc(Br)s3)n2)s1 [Example 351] | 36% | 99% | 2.69^[b] | 
50 | N#Cc1ccccc1Cn1cc(-c2ccncc2)c(-c2ccc(Br)s2)n1 [Example 352] |  |  | 2.13^[b] | 
51 | CC(C)=CCn1cc(-c2ccncc2)c(-c2ccc(Br)s2)n1 [Example 355] |  |  | 2.35^[b] | logP value of the minor isomer (between parenthesis, Isomer ratio column) (pH 2.7): (2.11)
52 | Brc1ccc(-c2nn(C3CCCC3)cc2-c2ccncc2)s1 [Example 356] | 75% | 97% | 2.37^[b] | 
53 | ClCCn1cc(-c2ccncc2)c(-c2cc3ccsc3s2)n1 [Example 370] | 70% | 99% | 1.7^[b] | 
54 | O=C1OCCC1n1cc(-c2ccncc2)c(-c2cc3ccsc3s2)n1 (centres unmarked) [Example 372] | 1% | 98% | 1.49^[b] | 
55 | C=CCn1cc(-c2ccncc2)c(-c2ccc(F)s2)n1 [Example 382] |  |  | 1.54^[b] | logP value of the minor isomer (pH 2.7): (1.48)
56 | C=CCn1cc(-c2ccncc2)c(-c2ccc(Br)s2)n1 [Example 383] |  |  | 1.82^[b] | logP value of the minor isomer (pH 2.7): (1.73)
57 | ClCCn1cc(-c2ccncc2)c(-c2ccc(Br)s2)n1 [Example 393] | 96% | 99% | 1.78^[b] | logP value of the minor isomer (pH 2.7): (1.61)
58 | CC(C)Cn1cc(-c2ccncc2)c(-c2ccc(C#N)s2)n1 [Example 404] |  |  | 1.74^[b] | 
59 | CC(C)Cn1ncc(-c2ccncc2)c1-c1ccc(Br)s1 [Example 406] | 0% | 95% | 1.91^[b] | 
60 | CC(=O)Nc1cc(-c2cn(C(C)C)nc2-c2ccc(Cl)s2)ccn1 [N-{4-[(3/5)-(5-Chloro-2-thienyl)-1-isopropyl-1H-pyrazol-4-yl]pyridin-2-yl}acetamide] |  |  |  | logP (pH2.7) (pH 2.7): 2.45; logP (pH2.7), minor isomer (pH 2.7): 2.22
61 | N-Butyl-5-[4-(pyridin-4-yl)-1H-pyrazol-3-yl]thiophene-2-carboxamide hydrochloride |  |  |  | logP (pH2.7) (pH 2.7): 1.47
